A short description of experiment [1]: test study of pure Nimbin in humans: analgesic effects. The experiment is classed as in vivo. The following applies: pure Nimbin consumed orally (10 mg/day). The protocol:
(§1) For example, pure Nimbin has been consumed orally (10 mg/day) in a test study to observe therapeutic/pharmacological effects of the compound various systems/maladies in humans.

For another experiment, the system named is benign tumors. Put plainly: systemic administration of Nimbin: benign tumors. In kind it is in vivo, humans. The protocol: as §1
The subject of experiment [2] is several classes of insects (Lepidoptera, Coleoptera, Homoptera). The experiment can be described thus: insecticidal action of Nimbin. The experiment is classed as in vivo. As to conditions: diamondback moth, imported cabbage worm, cabbage looper, tobacco budworm, Colorado potato beetle, green apple aphid, green peach aphid, potato leafhopper.
Another experiment has as its system skin. Put plainly: topical administration of Nimbin: tone of the skin. The experiment is classed as in vivo, humans.

Consider `COC(=O)C[C@H]1[C@]2(C)C3=C(C)[C@H](c4ccoc4)C[C@H]3O[C@@H]2[C@H](OC(C)=O)[C@@H]2[C@]1(C)C(=O)C=C[C@@]2(C)C(=O)OC` [Nimbin], for which the analgesic effects entry in experiment [1] is “analgesic effects”. The “action on benign tumors” value in the experiment on benign tumors is given as “regressive actions on benign tumors”. The insecticidal action result in experiment [2] is given as “broad spectrum insecticidal action”. Besides, the “effect on tone of the skin” value in the experiment with skin is “modulates the tone of the skin”.

Source of the values: patent US6545167B1, “Simple and effective manufacturing process for large scale recovery of Nimbin, a Neem seed constituent” (Fortune Bio-Tech Limited, priority 2002, dated 2003).
